Laboratory results from patent US9849114B2, “Oxymetazoline for the treatment of ano-rectal disorders” (RDD Pharma Ltd., priority 2011, dated 2017).
Where a name gives a salt, the structure may show the parent alone. One block for each compound: values may come before it.

How the values were obtained:
[1] = test system: patient having a reduced anal resting pressure; conditions: phenylephrine concentrations below 10%, topical; cited from earlier work
[2] = test system: Healthy volunteers; assay: Resting anal pressure by anorectal manometry after intraanal administration (Example 1); assay type: in vivo, human
Experimental: Preparations of phenylephrine hydrochloride and oxymetazoline were prepared. The oxymetazoline was first dissolved in propylene glycol and then added to polyethylene glycol 1500 to obtain a solution in the concentration of 1 mg/1 mL.
The preparations were administered intraanally. The doses are expressed as both a volume of a concentration of the drug solution and also as milligrams of the active ingredient.
Resting anal pressure was determined by anorectal manometry for measuring contractility in the anus and rectum using the ManoScan 360™ catheter (Sierra Scientific Instruments).
Healthy volunteers, men and women of 18 to 55 years old received intraanal dose of 40 mg (40 mL) or 80 mg (80 mL) phenylephrine or a dose of 1 mg oxymetazoline (1 mL; 0.1%). None of the volunteers had symptoms of anal incontinence nor previous anal surgery and presumed to have intact internal and external anal sphincters. Pre-treatment mean resting pressure was 85 mmHg for the phenyephrine 40 mg group, and 81 mmHg for the phenylephrine 80 mg group.
After the application of the aforementioned doses of phenylephrine and oxymetazoline, resting anal pressure was determined at the following time intervals: […], […] The results are summarized in Tables 1 and 2 below and in FIG. 1.

[3] = Solubility of oxymetazoline; assay type: physicochemical; conditions: aqueous and non aqueous media
[4] = test system: healthy human subjects; assay: Change in resting anal pressure at different oxymetazoline doses (Example 2); assay type: in vivo
[5] = test system: healthy human subjects; assay: Cardiac effect of oxymetazoline: blood pressure and heart rate (Example 2); assay type: in vivo
Text: The effect of oxymetazoline on cardiac parameters was examined in four healthy human subjects.

[6] = on lowering the pH of formulations, even with PVPs or PEGs; cited from earlier work
[7] = Phenylephrine 40 mg intraanal, time 90 min
[8] = Phenylephrine 40 mg intraanal, time 180 min
[9] = Phenylephrine 40 mg intraanal, time 240 min
[10] = Phenylephrine 80 mg intraanal, time 90 min
[11] = Phenylephrine 80 mg intraanal, time 180 min
[12] = Phenylephrine 80 mg intraanal, time 240 min
[13] = oxymetazoline 1 mg (1 mL; 0.1%) intraanal, time 0 min
[14] = oxymetazoline 1 mg (1 mL; 0.1%) intraanal, time 60 min
[15] = oxymetazoline 1 mg (1 mL; 0.1%) intraanal, time 180 min
[16] = oxymetazoline 1 mg (1 mL; 0.1%) intraanal, time 300 min

Compound: CNC[C@H](O)c1cccc(O)c1 [Phenylephrine]
- Increase in the maximum resting pressure [1]: no significant increase
- Maximum increase in anal pressure ([2]; 40 mg phenylephrine intraanal): 10 mmHg
- Time to reach the initial (pre-treatment) resting anal pressure ([2]; 40 mg phenylephrine intraanal): less than 5 hours
- Maximum increase in anal pressure ([2]; 80 mg phenylephrine intraanal): 22.5 mmHg
- Time in which increased pressure dropped nearly to the pressure prior to treatment ([2]; 80 mg phenylephrine intraanal): ≤ 3 h
- Time in which resting anal pressure dropped down to the pressure observed prior to treatment ([2]; 80 mg phenylephrine intraanal): less than 5 hours
- Change Relative to T = 0 (resting anal pressure) ([2]; Phenylephrine 40 mg intraanal, time 0 min): 0 mmHg
- Resting anal pressure ([2]; Phenylephrine 40 mg intraanal, time 0 min (pre-treatment)): 85 mmHg
- Change Relative to T = 0 (resting anal pressure) [2, 7]: 10 mmHg
- Resting anal pressure [2, 7]: 95 mmHg
- Change Relative to T = 0 (resting anal pressure) [2, 8]: 7.5 mmHg
- Resting anal pressure [2, 8]: 92.5 mmHg
- Change Relative to T = 0 (resting anal pressure) [2, 9]: 0 (±1.75) mmHg
- Resting anal pressure [2, 9]: 83.25 mmHg
- Change Relative to T = 0 (resting anal pressure) ([2]; Phenylephrine 80 mg intraanal, time 0 min): 0 mmHg
- Resting anal pressure ([2]; Phenylephrine 80 mg intraanal, time 0 min (pre-treatment)): 81 mmHg
- Change Relative to T = 0 (resting anal pressure) [2, 10]: 22.5 mmHg
- Resting anal pressure [2, 10]: 103.5 mmHg
- Change Relative to T = 0 (resting anal pressure) [2, 11]: 6.75 mmHg
- Resting anal pressure [2, 11]: 87.75 mmHg
- Change Relative to T = 0 (resting anal pressure) [2, 12]: 0 (±1.75) mmHg
- Resting anal pressure [2, 12]: 80.25 mmHg

- Solubility [3]: soluble in aqueous and non aqueous media
Compound: Cc1cc(C(C)(C)C)c(O)c(C)c1CC1=NCCN1 [Oxymetazoline, 3-(4,5-dihydro-1H-imidazol-2-ylmethyl)-2,4-dimethyl-6-tert-butyl-phenol]
- Change in resting anal pressure ([4]; Oxymetazoline dose 0.01%): 11 mmHg
- Change in resting anal pressure ([4]; Oxymetazoline dose 0.1%): 18.5 mmHg
- Significance of change in resting anal pressure with respect to baseline ([4]; Oxymetazoline dose 0.1%): statistically significant
- Change in resting anal pressure ([4]; Oxymetazoline dose 0.5%): 24.75 mmHg
- Significance of change in resting anal pressure with respect to baseline ([4]; Oxymetazoline dose 0.5%): statistically significant
- Change in diastolic blood pressure ([5]; Oxymetazoline dose 0.01%): 2 mmHg
- Change in heart rate ([5]; Oxymetazoline dose 0.01%): −3 beats/min
- Change in systolic Blood pressure ([5]; Oxymetazoline dose 0.01%): 6 mmHg
- Change in diastolic blood pressure ([5]; Oxymetazoline dose 0.1%): 0 mmHg
- Change in heart rate ([5]; Oxymetazoline dose 0.1%): 0 beats/min
- Change in systolic Blood pressure ([5]; Oxymetazoline dose 0.1%): 5 mmHg
- Change in diastolic blood pressure ([5]; Oxymetazoline dose 0.5%): 1 mmHg
- Change in heart rate ([5]; Oxymetazoline dose 0.5%): 1 beats/min
- Change in systolic Blood pressure ([5]; Oxymetazoline dose 0.5%): 3 mmHg
- Changes in the diastolic blood pressure, systolic blood pressure or in the heart rate ([5]; low doses of about 0.1%): did not induce any changes
- Cardiovascular side effect ([5]; low doses of oxymetazoline (0.01%-0.5%)): do not induce any cardiovascular side effect
- Change Relative to T = 0 (resting anal pressure) [2, 13]: 0 mmHg
- Resting anal pressure [2, 13]: 75 mmHg
- Change Relative to T = 0 (resting anal pressure) [2, 14]: 18 mmHg
- Resting anal pressure [2, 14]: 93 mmHg
- Change Relative to T = 0 (resting anal pressure) [2, 15]: 28 mmHg
- Resting anal pressure [2, 15]: 103 mmHg
- Change Relative to T = 0 (resting anal pressure) [2, 16]: 27 mmHg
- Resting anal pressure [2, 16]: 102 mmHg
- Increase in the maximum resting pressure relative to the pressure before treatment ([2]; oxymetazoline 1 mg intraanal): about 30 mmHg
- Time for which the increased resting anal pressure was maintained ([2]; oxymetazoline 1 mg intraanal, duration of the recording): at least 5 hours

Compound: Cc1cc(C(C)(C)C)c(O)c(C)c1CC1=NCCN1 [oxymetazoline HCl, 6-tert-butyl-3-(2-imidazolin-2-ylmethyl)-2,4-dimentylphenol hydrochloride]
- Photodegradation level [6]: significantly reduced
